Measured values reported in patent US9095136B2, “2-IODO imidazole-derivatives” (BAYER INTELLECTUAL PROPERTY GMBH, priority 2011, dated 2015).

Key:
Phakopsora pachyrhizi = assay: Example F: Phakopsora test (soya beans)/protective; format: in vivo; conditions: protective, 100 ppm, evaluation 7 days after inoculation
Method: (§1) Solvents: 24.5 parts by weight of acetone • 24.5 parts by weight of dimethylacetamide Emulsifier: 1 part by weight of alkylaryl polyglycol ether To produce a suitable preparation of active compound, 1 part by weight of active compound is mixed with the stated amounts of solvent and emulsifier, and the concentrate is diluted with water to the desired concentration. To test for protective activity, young plants are sprayed with the preparation of active compound at the stated application rate.

Septoria tritici [1] = assay: Example U: preventative in vivo test with Septoria tritici (leaf blotch disease on wheat); conditions: 500 ppm, evaluation 21 to 28 days after inoculation
Method: The active compounds tested are prepared by homogenization in a mixture of acetone/Tween/DMSO and then diluted with water to the desired active compound concentration. Wheat plants (cultivar “Scipion”), sown in a 50/50 peat/pozzolana soil substrate and cultivated at 22° C. (12 h)/20° C. (12 h), are treated at the 1-leaf stage (height 10 cm) by spraying with the active compound, prepared as above. As a control, plants are treated with the mixture of acetone/Tween/DMSO/water without the active compound. After 24 hours, the plants are inoculated by spraying the leaves with an aqueous suspension of cryogenically preserved Septoria tritici spores.

Pyricularia oryzae [2] = format: in vivo; conditions: rice, protective, 500 ppm, evaluation 7 days after inoculation
Septoria tritici [3] = assay: Example I: Septoria tritici test (wheat)/protective; format: in vivo; conditions: protective, 500 ppm, evaluation 21 days after inoculation
Method: as §1, with “Solvent: 49” for “Solvents: 24.5”, “N,N-dimethylacetamide” for “acetone • 24.5 parts by weight of dimethylacetamide”, “rate. After the spray coating has dried on, the plants are sprayed with a spore suspension of Septoria tritici.” for “rate.”

Septoria tritici [4] = assay: Example Z: Septoria tritici test (wheat)/protective, comparison; format: in vivo; conditions: protective, application rate 250 ppm, evaluation 21 days after inoculation
Method: Solvent: 49 parts by weight of N,N-dimethylacetamide Emulsifier: 1 part by weight of alkylaryl polyglycol ether To produce a suitable preparation of active compound, 1 part by weight of active compound or active compound combination is mixed with the stated amounts of solvent and emulsifier, and the concentrate is diluted with water to the desired concentration. To test for protective activity, young plants are sprayed with the preparation of active compound or active compound combination at the stated application rate. After the spray coating has dried on, the plants are sprayed with a spore suspension of Septoria tritici.

[5] = tested on: Blumeria graminis f.sp. hordei; assay: Example G: Blumeria graminis test (barley)/protective; format: in vivo; conditions: protective, 500 ppm, evaluation 7 days after inoculation
Method: Solvent: 49 parts by weight of N,N-dimethylacetamide Emulsifier: 1 part by weight of alkylaryl polyglycol ether To produce a suitable preparation of active compound, 1 part by weight of active compound is mixed with the stated amounts of solvent and emulsifier, and the concentrate is diluted with water to the desired concentration. To test for protective activity, young plants are sprayed with the preparation of active compound at the stated application rate. After the spray coating has dried on, the plants are dusted with spores of Blumeria graminis f.sp. hordei.

Pyricularia oryzae [6] = format: in vivo; conditions: rice, preventative, 500 ppm, evaluation 6 days after inoculation
Sphaerotheca fuliginea = assay: Example V: preventative in vivo test with Sphaerotheca fuliginea (powdery mildew on cucumber); conditions: 500 ppm, evaluation 12 days after inoculation
Method: The active compounds tested are prepared by homogenization in a mixture of acetone/Tween/DMSO and then diluted with water to the desired active compound concentration. Cucumber plants (cultivar “Vert petit de Paris”), sown in a 50/50 peat/pozzolana soil substrate and cultivated at 24° C., are treated at the Z11 cotyledon stage by spraying with the active compound, prepared as above. As a control, plants are treated with the mixture of acetone/Tween/DMSO/water without the active compound. After 24 hours, the plants are inoculated by spraying the leaves with an aqueous suspension of Sphaerotheca fuliginea spores. The inoculated cucumber plants are incubated at about 20° C./25° C. and a relative atmospheric humidity of 60/70%.

[7] = log P by HPLC on reversed-phase columns (EEC directive 79/831 Annex V.A8); format: physicochemical
Method: The log P values were measured according to EEC directive 79/831 Annex V.A8 by HPLC (High Performance Liquid Chromatography) on reversed-phase columns, using the methods below: […] Calibration was carried out using unbranched alkan-2-ones (having from 3 to 16 carbon atoms) with known log P values (the log P values were determined by the retention times using linear interpolation between two successive alkanones). The lambda maX values were determined in the maxima of the chromatographic signals using the UV spectra from 200 nm to 400 nm.

Alternaria solani = assay: Example A: Alternaria test (tomato)/protective; format: in vivo; conditions: protective, 500 ppm, evaluation 7 days after inoculation
Method: Solvent: 49 parts by weight of N,N-dimethylformamide Emulsifier: 1 part by weight of alkylaryl polyglycol ether To produce a suitable preparation of active compound, 1 part by weight of active compound is mixed with the stated amounts of solvent and emulsifier, and the concentrate is diluted with water to the desired concentration. […] The plants then remain at 96% rel. atmospheric humidity and a temperature of 20° C.

Uromyces appendiculatus = assay: Example Y: Uromyces test (beans)/protective, comparison; format: in vivo; conditions: protective, application rate 10 ppm, evaluation 10 days after inoculation
Method: as §1, with “rate. […] The plants are then placed in a greenhouse at about 21° C. and a relative atmospheric humidity of about 90%.” for “rate.”

OC(Cc1ccccc1Cl)(Cn1ccnc1I)C1(Cl)CC1 (stereo not drawn) [Example 1, 2-(1-chlorocyclopropyl)-1-(2-chlorophenyl)-3-(2-iodo-1H-imidazol-1-yl)propan-2-ol]
Eff. % (Phakopsora pachyrhizi): 98%
Efficacy % (Septoria tritici [1]): 100%
Eff. % (Pyricularia oryzae [2]): 95%
Eff. % (Septoria tritici [3]): 100%
Efficacy in % (Septoria tritici [4]): 86%
Eff. % [5]: 100%
Efficacy % (Pyricularia oryzae [6]): 100%
Efficacy % (Sphaerotheca fuliginea): 100%
chromatographic logP ([7]; pH 2.7, logP): 2.35
chromatographic logP ([7]; pH 7.8, logP): 3.38
Eff. % (Alternaria solani): 88%
Efficacy in % (Uromyces appendiculatus): 100%
